Several values for one entry are separate records, joined by “and”; a condition that tells them apart may be missing. Equal entries are not always repeated. Toxic doses and inconclusive results are not listed.
Tested on: CD2F1 mice, L1210 leukemia ip, survival T/C
Experiment: NCI In Vivo Anticancer Drug Screen. Data for tumor model L1210 Leukemia (intraperitoneal) in CD2F1 (CDF1) mice
Conditions: higher = longer survival
Procedure, shortened: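 Each value reflects a quotient of treated over vehicle control outcomes in mice with a transplanted tumor.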

Q: `CSc1ccccc1C1=CCCCCC1` was tested. Which T/C (endpoint: mean survival time, dose: 50.0 mg/kg/injection, schedule: Q01DX009 (ip), vehicle: saline with Tween-80) did it give?
A: 103 % of control

Q: What about the T/C (endpoint: mean survival time, dose: 100.0 mg/kg/injection, schedule: Q01DX001 (ip), vehicle: saline with Tween-80) of the same compound?
A: 96 % of control

Q: And the T/C (endpoint: mean survival time, dose: 100.0 mg/kg/injection, schedule: Q01DX009 (ip), vehicle: saline with Tween-80)?
A: 93 % of control

Q: What about the T/C (endpoint: mean survival time, dose: 200.0 mg/kg/injection, schedule: Q01DX001 (ip), vehicle: saline with Tween-80) of the same compound?
A: 94 % of control

Q: And the T/C (endpoint: mean survival time, dose: 200.0 mg/kg/injection, schedule: Q01DX009 (ip), vehicle: saline with Tween-80)?
A: 94 % of control

Q: `CC[C@](O)(C(=O)O)c1cc2n(c(=O)c1CO)Cc1cc3ccccc3nc1-2` was tested. Which T/C (endpoint: mean survival time, dose: 1.0 mg/kg/injection, schedule: Q04DX003 (ip), vehicle: water) did it give?
A: 100 % of control

Q: What about the T/C (endpoint: mean survival time, dose: 2.0 mg/kg/injection, schedule: Q04DX003 (ip), vehicle: water) of the same compound?
A: 107 % of control

Q: And the T/C (endpoint: mean survival time, dose: 4.0 mg/kg/injection, schedule: Q04DX003 (ip), vehicle: water)?
A: 108 % of control

Q: And the T/C (endpoint: mean survival time, dose: 12.5 mg/kg/injection, schedule: Q04DX003 (ip), vehicle: water)?
A: 159 % of control

Q: And the T/C (endpoint: mean survival time, dose: 16.0 mg/kg/injection, schedule: Q04DX003 (ip), vehicle: water)?
A: 175 % of control

Q: And the T/C (endpoint: mean survival time, dose: 50.0 mg/kg/injection, schedule: Q04DX003 (ip), vehicle: water)?
A: 113 % of control and 119 % of control

Q: And the T/C (endpoint: mean survival time, dose: 100.0 mg/kg/injection, schedule: Q04DX003 (ip), vehicle: water)?
A: 93 % of control

Q: And the T/C (endpoint: median survival time, dose: 3.75 mg/kg/injection, schedule: Q04HX004 (iv), vehicle: water)?
A: 115 % of control

Q: And the T/C (endpoint: median survival time, dose: 5.0 mg/kg/injection, schedule: Q04DX002 (ip), vehicle: water)?
A: 117 % of control and 121 % of control and 123 % of control

Q: And the T/C (endpoint: median survival time, dose: 5.0 mg/kg/injection, schedule: Q04DX002 (iv), vehicle: water)?
A: 115 % of control

Q: What about the T/C (endpoint: median survival time, dose: 6.2 mg/kg/injection, schedule: Q04HX004 (iv), vehicle: water) of the same compound?
A: 167 % of control

Q: And the T/C (endpoint: median survival time, dose: 6.25 mg/kg/injection, schedule: Q04HX004 (iv), vehicle: saline)?
A: 177 % of control

Q: What about the T/C (endpoint: median survival time, dose: 6.25 mg/kg/injection, schedule: Q04HX004 (iv), vehicle: water) of the same compound?
A: 162 % of control and 178 % of control

Q: What about the T/C (endpoint: median survival time, dose: 7.5 mg/kg/injection, schedule: Q04HX004 (iv), vehicle: other) of the same compound?
A: 170 % of control

Q: What about the T/C (endpoint: median survival time, dose: 7.5 mg/kg/injection, schedule: Q04HX004 (iv), vehicle: water) of the same compound?
A: 166 % of control and 180 % of control

Q: And the T/C (endpoint: median survival time, dose: 12.5 mg/kg/injection, schedule: Q04DX003 (ip), vehicle: clinical formulation)?
A: 178 % of control

Q: And the T/C (endpoint: median survival time, dose: 12.5 mg/kg/injection, schedule: Q04DX003 (ip), vehicle: saline)?
A: 167 % of control

Q: And the T/C (endpoint: median survival time, dose: 12.5 mg/kg/injection, schedule: Q04HX004 (iv), vehicle: saline)?
A: 160 % of control and 190 % of control

Q: And the T/C (endpoint: median survival time, dose: 12.5 mg/kg/injection, schedule: Q04HX004 (iv), vehicle: water)?
A: 177 % of control and 193 % of control and 196 % of control

Q: And the T/C (endpoint: median survival time, dose: 15.0 mg/kg/injection, schedule: Q04HX004 (iv), vehicle: dextrose)?
A: 195 % of control

Q: And the T/C (endpoint: median survival time, dose: 15.0 mg/kg/injection, schedule: Q04HX004 (iv), vehicle: other)?
A: 192 % of control

Q: And the T/C (endpoint: median survival time, dose: 15.0 mg/kg/injection, schedule: Q04HX004 (iv), vehicle: water)?
A: 200 % of control and 208 % of control

Q: What about the T/C (endpoint: median survival time, dose: 20.0 mg/kg/injection, schedule: Q04DX002 (ip), vehicle: saline) of the same compound?
A: 151 % of control and 168 % of control (2×)

Q: What about the T/C (endpoint: median survival time, dose: 25.0 mg/kg/injection, schedule: Q04DX002 (ip), vehicle: water) of the same compound?
A: 156 % of control and 195 % of control

Q: What about the T/C (endpoint: median survival time, dose: 25.0 mg/kg/injection, schedule: Q04DX003 (ip), vehicle: clinical formulation) of the same compound?
A: 229 % of control

Q: And the T/C (endpoint: median survival time, dose: 25.0 mg/kg/injection, schedule: Q04DX003 (ip), vehicle: saline)?
A: 218 % of control

Q: And the T/C (endpoint: median survival time, dose: 25.0 mg/kg/injection, schedule: Q04HX004 (iv), vehicle: saline)?
A: 198 % of control and 226 % of control

Q: What about the T/C (endpoint: median survival time, dose: 25.0 mg/kg/injection, schedule: Q04HX004 (iv), vehicle: water) of the same compound?
A: 206 % of control and 212 % of control and 230 % of control

Q: What about the T/C (endpoint: median survival time, dose: 30.0 mg/kg/injection, schedule: Q04HX004 (iv), vehicle: dextrose) of the same compound?
A: 227 % of control

Q: And the T/C (endpoint: median survival time, dose: 30.0 mg/kg/injection, schedule: Q04HX004 (iv), vehicle: other)?
A: 219 % of control

Q: And the T/C (endpoint: median survival time, dose: 30.0 mg/kg/injection, schedule: Q04HX004 (iv), vehicle: water)?
A: 220 % of control and 227 % of control

Q: And the T/C (endpoint: median survival time, dose: 40.0 mg/kg/injection, schedule: Q04DX002 (ip), vehicle: saline)?
A: 181 % of control and 185 % of control and 200 % of control

Q: What about the T/C (endpoint: median survival time, dose: 40.0 mg/kg/injection, schedule: Q04DX002 (iv), vehicle: water) of the same compound?
A: 183 % of control

Q: What about the T/C (endpoint: median survival time, dose: 40.0 mg/kg/injection, schedule: Q04HX004 (iv), vehicle: other) of the same compound?
A: 247 % of control

Q: And the T/C (endpoint: median survival time, dose: 40.0 mg/kg/injection, schedule: Q04HX004 (iv), vehicle: water)?
A: 226 % of control and 253 % of control

Q: And the T/C (endpoint: median survival time, dose: 50.0 mg/kg/injection, schedule: Q04DX002 (ip), vehicle: water)?
A: 173 % of control and 217 % of control

Q: And the T/C (endpoint: median survival time, dose: 50.0 mg/kg/injection, schedule: Q04DX003 (ip), vehicle: saline)?
A: 263 % of control

Q: And the T/C (endpoint: median survival time, dose: 50.0 mg/kg/injection, schedule: Q04HX004 (iv), vehicle: saline)?
A: 211 % of control and 256 % of control

Q: And the T/C (endpoint: median survival time, dose: 50.0 mg/kg/injection, schedule: Q04HX004 (iv), vehicle: water)?
A: 225 % of control and 261 % of control and 101 % of control

Q: And the T/C (endpoint: median survival time, dose: 80.0 mg/kg/injection, schedule: Q04DX002 (ip), vehicle: saline)?
A: 205 % of control and 216 % of control and 227 % of control

Q: What about the T/C (endpoint: median survival time, dose: 80.0 mg/kg/injection, schedule: Q04DX002 (iv), vehicle: water) of the same compound?
A: 252 % of control

Q: And the T/C (endpoint: median survival time, dose: 100.0 mg/kg/injection, schedule: Q04DX002 (ip), vehicle: water)?
A: 204 % of control and 233 % of control

Q: What about the T/C (endpoint: median survival time, dose: 100.0 mg/kg/injection, schedule: Q04DX003 (ip), vehicle: saline) of the same compound?
A: 108 % of control
